Parameters in all cases: species or system BALB/c mice
Data set [1] can be described thus: In vivo toxicity in mice: body weight, mortality, white blood cell differential (Example 9). From the text: FIG. 2 is a pair of graphs depicting results of an in vivo toxicity assay in mice for specific quinoline and quinazoline compounds. […] N=3 for each treatment group.
FIG. 3 is a bar graph depicting total and differential white blood cell counts in mice measured five days after administration of a single intraperitoneal dose of specific quinoline and quinazoline compounds. N=3 for each treatment group.
Female BALB/c mice (n=3 per group) were given a single intraperitoneal bolus injection of CMZ 203-43 (1.0 or 4.0 mg), CMZ 203-34 (1.0 or 4.0 mg) or CMZ 203-49 (1.0 or 4.0 mg) in a volume of 0.2 ml. Compound CMZ 203-43 has the structural formula
Other mice received 10% dimethyl sulfoxide (DMSO) in an identical manner. Animals were weighed immediately prior to injection (day 1) and then daily until day 5. On day 5, blood was collected by cardiac puncture and analyzed for hematological and biochemical parameters. Animals were monitored daily for morbidity and mortality.
All of the mice receiving 4.0 mg CMZ 203-43 group were dead on day 4.
Data for mice treated with 4.0 mg CMZ 203-43 was not available because all these mice were dead before day 5.

Data set [2] deals with IP-10 induction by CpG ODN 2006. The data set can be described thus: In vivo inhibition of IP-10 induction by CpG ODN 2006 (Example 10). To be noted: 40 μg intraperitoneal 1 h before 100 μg CpG ODN 2006 s.c.; bled at 3 hr. As for the experimental part: FIG. 4 is a bar graph depicting in vivo inhibition of IP-10 induction (pg/ml) by CpG ODN 2006 following pretreatment with PBS control or a quinoline compound (203-43) or various indicated quinazoline compounds (203-34, 203-49, or 203-51). N=5 for each group.
(§1) BALB/c mice (n=5) were pretreated with intraperitoneal injection of 40 μg quinoline 203-43, quinazoline 203-34, 203-49, or 203-51, or with 100 μl of sterile phosphate buffered saline (PBS) control. One hour after the injection, mice were injected subcutaneously with 100 μg CpG ODN 2006. Animals were bled at 3 hr post injection with CpG ODN 2006 and IP-10 levels in plasma measured by IP-10-specific enzyme-linked immunosorbent assay (ELISA).

Data set [3] deals with TNF-α induction by CpG ODN 2006. Nature of the data set: In vivo inhibition of TNF-α induction by CpG ODN 2006 (Example 11). Conditions: 40 μg intraperitoneal 1 h before 100 μg CpG ODN 2006 s.c.; bled at 1 hr. As for the experimental part:
FIG. 5 is a bar graph depicting in vivo inhibition of TNF-α induction (pg/ml) by CpG ODN 2006 following pretreatment with PBS control or a quinoline compound (203-43) or various indicated quinazoline compounds (203-34, 203-49, or 203-51). N=5 for each group.
as §1
Groups of BALB/c mice treated as in Example 10 were also analyzed for TNF-α. Animals were bled at 1 hr post injection with CpG ODN 2006 and TNF-α levels in plasma measured by TNF-α-specific ELISA.

[4] abbreviates: 4.0 mg single intraperitoneal injection.

The record followed here is patent US7410975B2, “Small molecule toll-like receptor (TLR) antagonists” (Coley Pharmaceutical Group, Inc., priority 2003, dated 2008).

Entries after “also recorded” stand apart in the source; their conditions may differ.

Regarding `CN(C)CCNc1cc(-c2ccc(N3CCN(C)CC3)cc2)nc2ccccc12` [CMZ 203-43], the body weight change entry in data set [1] (1.0 mg single intraperitoneal injection, 5 days) is reported as “significant weight loss”. Further, the “white blood cell differential” value in data set [1] (1.0 mg single intraperitoneal injection, day 5) is on record as “significant neutrophilia”. In addition, in data set [1] (setting [4]), the morbidity and mortality result is “sick and had to be sacrificed on day 3; also recorded: dead on day 4”; the necropsy finding entry is on record as “bowel obstruction”. For the same compound, the “serum IP-10 concentration versus PBS control” value in data set [2] was “significantly reduced”. In data set [3], the “serum TNF-α concentration versus PBS control” value is given as “significantly reduced”.
